Literature values, collected in patent publication US20070072904A1, “PPAR active compounds” (priority 2005, published 2007).

Tests used:
PPARδ = molecular target: T1, PPARδ (Homo sapiens, UniProt Q03181)
T1 sequence (Q03181 1-441): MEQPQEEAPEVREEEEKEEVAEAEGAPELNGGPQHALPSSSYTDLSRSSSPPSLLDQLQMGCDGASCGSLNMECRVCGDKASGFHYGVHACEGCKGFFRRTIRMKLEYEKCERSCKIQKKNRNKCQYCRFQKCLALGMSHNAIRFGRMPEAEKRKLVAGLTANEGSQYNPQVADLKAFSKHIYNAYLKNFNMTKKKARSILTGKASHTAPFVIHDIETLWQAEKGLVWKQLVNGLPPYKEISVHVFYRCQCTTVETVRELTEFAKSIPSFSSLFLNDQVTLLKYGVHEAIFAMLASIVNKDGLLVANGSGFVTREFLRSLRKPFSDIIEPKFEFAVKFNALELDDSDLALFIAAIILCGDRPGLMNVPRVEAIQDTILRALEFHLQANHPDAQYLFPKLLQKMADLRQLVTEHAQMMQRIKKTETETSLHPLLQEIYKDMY

murine PPARα = molecular target: T2, murine PPARα (Mus musculus, UniProt P23204)
T2 sequence (P23204 1-468): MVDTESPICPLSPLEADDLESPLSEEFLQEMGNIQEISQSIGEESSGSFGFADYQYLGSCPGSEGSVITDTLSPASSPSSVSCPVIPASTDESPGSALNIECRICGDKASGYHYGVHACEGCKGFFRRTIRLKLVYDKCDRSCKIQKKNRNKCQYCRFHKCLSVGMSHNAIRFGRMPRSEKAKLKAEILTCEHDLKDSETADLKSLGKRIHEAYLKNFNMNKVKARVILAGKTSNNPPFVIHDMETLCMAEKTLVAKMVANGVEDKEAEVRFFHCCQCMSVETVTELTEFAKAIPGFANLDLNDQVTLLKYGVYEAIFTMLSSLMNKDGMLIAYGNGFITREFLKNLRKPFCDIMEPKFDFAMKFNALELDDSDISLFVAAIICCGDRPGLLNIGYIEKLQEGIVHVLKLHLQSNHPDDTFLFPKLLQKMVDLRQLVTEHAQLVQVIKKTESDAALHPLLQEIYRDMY

[1] = recent large prospective trial

| SMILES | agonist selectivity for PPARδ over PPARγ (PPARδ) | activity on murine PPARα (murine PPARα) | reduction in cardiovascular events or death [1] [%] |
| --- | --- | --- | --- |
| CCCc1c(OCCCOc2ccc(OCC(=O)O)cc2)ccc(C(C)=O)c1O [Compound L-165041] | approximately 30 fold | inactive | – |
| Cc1ccc(C)c(OCCCC(C)(C)C(=O)O)c1 [gemfibrozil] | – | – | 22 |
